Active and inactive are the calls of the source. The rule behind the calls is not given here.

Assay [1] concerns Tumor Cell line. Put plainly: Multidrug resistant(MDR) reversing activity in vitro in human tumor cells; Inactive. The class given is functional, cell-based.
The subject of assay [2] is Tumor Cell line. The assay can be described thus: Multidrug resistant(MDR) reversing activity in vitro in human tumor cells; Active. The class given is functional, cell-based.

For the compound `O=C(O)[C@H]1O[C@@H](O[C@H](COc2cccc3ncccc23)CN2CCN(C(=O)C(c3ccccc3)c3ccccc3)CC2)[C@H](O)[C@@H](O)[C@@H]1O`, in the assay on Tumor Cell line [1], the Reversing activity entry was “inactive”.

Take `O=C(O)[C@H]1O[C@@H](O[C@@H](COc2cccc3ncccc23)CN2CCN(C(=O)C(c3ccccc3)c3ccccc3)CC2)[C@H](O)[C@@H](O)[C@@H]1O`: the Reversing activity result in the assay with Tumor Cell line [1] was “inactive”. Take `O=C(C(c1ccccc1)c1ccccc1)N1CCN(C[C@@H](O)COc2cccc3ncccc23)CC1`: the Reversing activity entry with Tumor Cell line [2] is “Active”.

For the origin of these results see ChEMBL document CHEMBL1131959, “Synthesis of glucuronides of multidrug resistance reversing drug MS-209” (Bioorg Med Chem Lett, 1999).
